Several values for one entry are separate records, joined by “and”; a condition that tells them apart may be missing. Equal entries are not always repeated.
Experiments:
[1] = system: vascular smooth muscle cells; settings: cited from earlier work
[2] = system: isolated rat aortic rings; experiment: Organ bath tension of isolated rat aortic rings (intact and denuded) precontracted with norepinephrine; format: cell-based; settings: for Tension of aortic rings: after 0.3 uM norepinephrine
[3] = cited from earlier work
[4] = system: human saphenous vein rings and rat aortic rings; format: cell-based

For OCCN(CCO)c1nc(N2CCCCC2)c2nc(N(CCO)CCO)nc(N3CCCCC3)c2n1 [Dipyridamole], the “Inhibition of growth of vascular smooth muscle cells” value ([1]; 75 microg/mL (0.150 mM), Kim et al) is given as “approximately 90%” and the “Duration of sustained antiproliferative effects” value ([1]; after drug exposure of only 15 min) is given as 48 h.
For Nc1ncnc2c1ncn2[C@@H]1O[C@H](CO)[C@@H](O)[C@H]1O [Adenosine, 6-amino-9-β-D-ribofuranosyl-9H-purine], the “Relaxation of denuded rings as percent of the relaxation of intact rings” value ([2]; 400 uM) was 35%, the “Relaxation of denuded rings as percent of the relaxation of intact rings” value ([2]; 500 uM) was 44% and the “Greater falls in tension than lidocaine alone” value ([2]; at 400 and 500 uM) was “about 30%”. The “Concentration at which tension begins to decrease by over 5% relative to the precontracted state” value ([2]; denuded rings) was 300 µM, the “Tension expressed as a percent of baseline” value ([2]; denuded rings, 10 uM) was 100% and the “Tension expressed as a percent of baseline” value ([2]; denuded rings, 50 uM) was 100% and 99%. For the same compound, the “Tension expressed as a percent of baseline” value ([2]; denuded rings, 100 uM) was 99% and 98%, the “Relaxation (percent tension decrease) relative to the precontracted state” value ([2]; denuded rings, 200 uM) was 4% and the “Tension expressed as a percent of baseline” value ([2]; denuded rings, 200 uM) was 95% and 93%. For the same compound, the “Tension expressed as a percent of baseline” value ([2]; denuded rings, 300 uM) was 88%, the “Extent of relaxation, percentage of precontracted norepinephrine tension” value ([2]; denuded rings, drug 10 μM) was 100.3 ± 0.2% and the “Tension of aortic rings” value ([2]; denuded rings, drug 10 μM) was 3.56 ± 0.08 g. The “Extent of relaxation, percentage of precontracted norepinephrine tension” value ([2]; denuded rings, drug 60 μM) was 100.0 ± 0.4%, the “Tension of aortic rings” value ([2]; denuded rings, drug 60 μM) was 3.55 ± 0.09 g and the “Extent of relaxation, percentage of precontracted norepinephrine tension” value ([2]; denuded rings, drug 160 μM) was 98.9 ± 0.5%. For the same compound, the “Tension of aortic rings” value ([2]; denuded rings, drug 160 μM) was 3.51 ± 0.09 g, the “Extent of relaxation, percentage of precontracted norepinephrine tension” value ([2]; denuded rings, drug 360 μM) was 95.2 ± 1.1% and the “Tension of aortic rings” value ([2]; denuded rings, drug 360 μM) was 3.39 ± 0.11 g. The “Extent of relaxation, percentage of precontracted norepinephrine tension” value ([2]; denuded rings, drug 660 μM) was 87.6 ± 2.3%, the “Tension of aortic rings” value ([2]; denuded rings, drug 660 μM) was 3.12 ± 0.14 g and the “Extent of relaxation, percentage of precontracted norepinephrine tension” value ([2]; denuded rings, drug 1060 μM) was 76.6 ± 3.4%. The “Tension of aortic rings” value ([2]; denuded rings, drug 1060 μM) was 2.73 ± 0.17 g, the “Extent of relaxation, percentage of precontracted norepinephrine tension” value ([2]; denuded rings, drug 1560 μM) was 62.4 ± 4.2% and the “Tension of aortic rings” value ([2]; denuded rings, drug 1560 μM) was 2.23 ± 0.17 g. The “Concentration at which tension begins to decrease by over 5% relative to the precontracted state” value ([2]; intact rings) was 100 µM, the “Relaxation (percent tension decrease) relative to the precontracted state” value ([2]; intact rings, 10 uM) was “no change” and the “Tension expressed as a percent of baseline” value ([2]; intact rings, 10 uM) was 99%. The “Relaxation (percent tension decrease) relative to the precontracted state” value ([2]; intact rings, 50 uM) was “no change”, the “Tension expressed as a percent of baseline” value ([2]; intact rings, 50 uM) was 96% and the “Tension expressed as a percent of baseline” value ([2]; intact rings, 100 uM) was 89%. For the same compound, the “Tension expressed as a percent of baseline” value ([2]; intact rings, 200 uM) was 76%, the “Tension expressed as a percent of baseline” value ([2]; intact rings, 300 uM) was 61% and the “Tension expressed as a percent of baseline” value ([2]; intact rings, 400 uM) was 48%. The “Tension expressed as a percent of baseline” value ([2]; intact rings, 500 uM) was 39%, the “Maximum relaxation relative to the precontracted state” value ([2]; intact rings, at 500 uM) was 48% and the “Extent of relaxation, percentage of precontracted norepinephrine tension” value ([2]; intact rings, drug 10 μM) was 99.0 ± 0.3%. For the same compound, the “Tension of aortic rings” value ([2]; intact rings, drug 10 μM) was 3.65 ± 0.12 g, the “Extent of relaxation, percentage of precontracted norepinephrine tension” value ([2]; intact rings, drug 60 μM) was 96.2 ± 0.7% and the “Tension of aortic rings” value ([2]; intact rings, drug 60 μM) was 3.54 ± 0.11 g. For the same compound, the “Extent of relaxation, percentage of precontracted norepinephrine tension” value ([2]; intact rings, drug 160 μM) was 89.7 ± 1.5%, the “Tension of aortic rings” value ([2]; intact rings, drug 160 μM) was 3.30 ± 0.09 g and the “Extent of relaxation, percentage of precontracted norepinephrine tension” value ([2]; intact rings, drug 360 μM) was 76.3 ± 3.1%. The “Tension of aortic rings” value ([2]; intact rings, drug 360 μM) was 2.81 ± 0.11 g, the “Extent of relaxation, percentage of precontracted norepinephrine tension” value ([2]; intact rings, drug 660 μM) was 60.7 ± 4.2% and the “Tension of aortic rings” value ([2]; intact rings, drug 660 μM) was 2.23 ± 0.14 g. For the same compound, the “Extent of relaxation, percentage of precontracted norepinephrine tension” value ([2]; intact rings, drug 1060 μM) was 48.5 ± 3.9%, the “Tension of aortic rings” value ([2]; intact rings, drug 1060 μM) was 1.78 ± 0.13 g and the “Extent of relaxation, percentage of precontracted norepinephrine tension” value ([2]; intact rings, drug 1560 μM) was 38.9 ± 2.8%. For the same compound, the “Tension of aortic rings” value ([2]; intact rings, drug 1560 μM) was 1.43 ± 0.08 g, the “Dependence of relaxation on an intact endothelium (denuded vs intact rings)” value ([2]; intact vs denuded rings) was “dependent on an intact endothelium” and the “Half life in the blood” value [3] was “about 10 seconds”.
With Botulinum toxin type A the “Relaxation of vascular smooth muscle” value [4] was “dose dependent relaxation”.

Source: patent publication US8946189B2, “Transplants” (priority 2007, dated 2015)
